From ChEMBL document CHEMBL1126954, “Synthesis and antimalarial activity of some 9-substituted artemisinin derivatives” (J Med Chem, 1993)
Values after ≈ are worked out from the molar mass of the structure shown.

What was measured:
Format in all cases: functional, organism-based
[1] = system: Plasmodium falciparum; assay: In vitro antimalarial activity relative to artemisinin against Plasmodium falciparum W2 (Indochina); Not active <= 5000 ng/mL
[2] = system: Plasmodium falciparum; assay: In vitro antimalarial activity against Plasmodium falciparum D6 (Sierra Leone); Not active <= 5000 ng/mL
[3] = system: Plasmodium falciparum; assay: In vitro antimalarial activity against Plasmodium falciparum D-6 Sierra Leone relative to artemisinin; Not active <= 5000 ng/mL
[4] = system: Plasmodium falciparum; assay: In vitro antimalarial activity against Plasmodium falciparum W-2 (Indochina) relative to artemisinin; Not active at <5000 ng/mL
[5] = system: Plasmodium falciparum; assay: In vitro antimalarial activity against Plasmodium falciparum W-2 (Indochina)
[6] = system: Plasmodium falciparum; assay: In vitro antimalarial activity against Plasmodium falciparum D6 Sierra Leone
[7] = system: Plasmodium falciparum; assay: In vitro antimalarial activity relative to artemisinin against Plasmodium falciparum W-2 (Indochina)
[8] = system: Plasmodium falciparum; assay: In vitro antimalarial activity against Plasmodium falciparum D6 Sierra Leone relative to artemisinin

Compound	IC50 [1]	IC50 [2]	IC50 [3]	IC50 [4]	IC50 [5] [ng/mL]	IC50 [6] [ng/mL]	IC50 ratio [7]	IC50 ratio [8]	IC50 ([7]; Plasmodium falciparum) [ng/mL]
C[C@@H]1CCC2[C@]34OO[C@](C)(CCC13)O[C@H]4OC(=O)[C@@]2(O)CO (stereo partly drawn)	Not Active	Not Active	Not Active	Not Active	–	–	–	–	–
C=C1C(=O)O[C@@H]2O[C@@]3(C)CC[C@H]4[C@H](C)CC[C@@H]1[C@@]24OO3 [ARTEMISITENE]	–	–	–	–	7.44 (≈ 0.0265 µM)	5.3 (≈ 0.0189 µM)	7.8	2.8	–
C[C@@H]1CCC2C(=O)C(=O)O[C@@H]3O[C@@]4(C)CCC1[C@@]23OO4 (stereo partly drawn)	–	–	–	–	278 (≈ 0.985 µM)	319 (≈ 1.13 µM)	290	169	–
C[C@@H]1CCC2[C@]34OO[C@](C)(CCC13)O[C@H]4OC(=O)[C@@]2(Br)CBr (stereo partly drawn)	–	–	–	–	67 (≈ 0.152 µM)	77 (≈ 0.175 µM)	44	26	–
C[C@@H]1CC[C@H]2[C@@H](C)C(=O)O[C@@H]3O[C@@]4(C)CC[C@@H]1[C@]32OO4 [ARTEMISININ]	–	–	–	–	0.95 (≈ 0.00336 µM)	1.89 (≈ 0.00669 µM)	–	1	1 (≈ 0.00354 µM)
C[C@@H]1CCC2[C@]34OO[C@](C)(CCC13)O[C@H]4O[C@H](OO)[C@]21CO1 (stereo partly drawn)	–	–	–	–	4 (≈ 0.0127 µM)	2 (≈ 0.00636 µM)	3.7	0.9	–
C[C@@H]1CCC2[C@]34OO[C@](C)(CCC13)O[C@H]4OC(=O)[C@@]21CO1 (stereo partly drawn)	–	–	–	–	124 (≈ 0.418 µM)	96 (≈ 0.324 µM)	123	48	–
C=C1C2CC[C@@H](C)C3CC[C@@]4(C)OO[C@@]23[C@H](O[C@@H]1OO)O4 (stereo partly drawn)	–	–	–	–	8.12 (≈ 0.0272 µM)	4.08 (≈ 0.0137 µM)	8	2	–
C[C@@H]1CCC2[C@@]3(CO3)C(O)O[C@@H]3O[C@@]4(C)CCC1[C@@]23OO4 (stereo partly drawn)	–	–	–	–	3.4 (≈ 0.0114 µM)	1.8 (≈ 0.00603 µM)	3.4	0.9	–
C[C@@H]1CCC2[C@H](O)[C@H](O)O[C@@H]3O[C@@]4(C)CCC1[C@@]23OO4 (stereo partly drawn)	–	–	–	–	7.4 (≈ 0.0258 µM)	7.3 (≈ 0.0255 µM)	7.6	3.8	–
C/C=C1\C(=O)O[C@@H]2O[C@@]3(C)CCC4[C@H](C)CC[C@@H]1[C@]42OO3 (stereo partly drawn)	–	–	–	–	2.3 (≈ 0.00781 µM)	2.1 (≈ 0.00713 µM)	2.3	1.1	–
C[C@@H]1CCC2C3(CC3)C(=O)O[C@@H]3O[C@@]4(C)CCC1[C@@]23OO4 (stereo partly drawn)	–	–	–	–	8.6 (≈ 0.0292 µM)	10 (≈ 0.034 µM)	8.6	5.2	–
C=C1C2CC[C@@H](C)C3CC[C@@]4(C)OO[C@@]23[C@H](O[C@@H]1O)O4 (stereo partly drawn)	–	–	–	–	232 (≈ 0.822 µM)	119 (≈ 0.421 µM)	242	63	–
C[C@@H]1CCC2[C@]34OO[C@](C)(CCC13)O[C@H]4OC(=O)[C@]21CO1 (stereo partly drawn)	Not Active	Not Active	Not Active	Not Active	–	–	–	–	–
C[C@@H]1CCC2[C@]34OO[C@](C)(CCC13)O[C@H]4O[C@H](OO)[C@@]21CO1 (stereo partly drawn)	–	–	–	–	4.5 (≈ 0.0143 µM)	2.8 (≈ 0.00891 µM)	4.2	1.3	–
CSC1=NN=C2C3CC[C@@H](C)C4CC[C@@]5(C)OO[C@@]34[C@H](OC2(O)S1)O5 (stereo partly drawn)	–	–	–	–	564 (≈ 1.46 µM)	789 (≈ 2.04 µM)	429	305	–
C[C@@H]1CCC2[C@]34OO[C@](C)(CCC13)O[C@H]4OC(=O)[C@@]21CCN=N1 (stereo partly drawn)	–	–	–	–	447 (≈ 1.39 µM)	604 (≈ 1.87 µM)	408	280	–
